Source: ChEMBL document CHEMBL1201862, “PubChem BioAssay data set” (2004)
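Values below derive from 48-hour exposures of cells grown in 96-well plates, with endpoints linearly interpolated between the two concentrations bracketing the appropriate inhibition level. At the GI50, growth is halved.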 Calls of active or inactive are those of the source. Rule as the data show it: active = GI50 up to about 1.1 µM and inactive = higher.

Columns and labels:
Assay in all cases: NCI tumour cell line growth inhibition, 48 h
[1] = test system: 786-0
[2] = test system: A498
[3] = test system: A549
[4] = test system: ACHN
[5] = test system: BT-549
[6] = test system: CAKI-1
[7] = test system: CCRF-CEM
[8] = test system: COLO 205
[9] = test system: DU-145
[10] = test system: EKVX
[11] = test system: HCC 2998
[12] = test system: HCT-116
[13] = test system: HCT-15
[14] = test system: HL-60
[15] = test system: HOP-62
[16] = test system: HT-29
[17] = test system: Hs-578T
[18] = test system: IGROV-1
[19] = test system: K562
[20] = test system: KM12
[21] = test system: LOX IMVI
[22] = test system: M14
[23] = test system: MCF7
[24] = test system: MDA-MB-231
[25] = test system: MDA-MB-435
[26] = test system: MDA-N
[27] = test system: MOLT-4
[28] = test system: Malme-3M
[29] = test system: NCI-H226
[30] = test system: NCI-H23
[31] = test system: NCI-H460
[32] = test system: NCI-H522
[33] = test system: NCI/ADR-RES
[34] = test system: OVCAR-3
[35] = test system: OVCAR-4
[36] = test system: OVCAR-5
[37] = test system: OVCAR-8
[38] = test system: PC-3
[39] = test system: RPMI-8226
[40] = test system: SF-268
[41] = test system: SF-295
[42] = test system: SF-539
[43] = test system: SK-MEL-28
[44] = test system: SK-MEL-2
[45] = test system: SK-MEL-5
[46] = test system: SK-OV-3
[47] = test system: SN12C
[48] = test system: SNB-19
[49] = test system: SR
[50] = test system: SW-620
[51] = test system: T47D
[52] = test system: TK-10
[53] = test system: U-251
[54] = test system: UACC-257
[55] = test system: UACC-62
[56] = test system: UO-31
[57] = test system: HOP-92
[58] = test system: SNB-75
[59] = test system: RXF 393

## CN(CCN1CCCC1)C1CCc2cc(Cl)c(Cl)cc2C1 (stereo not given)
[1]
  GI50: 14.7 µM (inactive)
[2]
  GI50: 13.2 µM (inactive)
[3]
  GI50: 16.6 µM (inactive)
[4]
  GI50: 16.9 µM (inactive)
[5]
  GI50: 14.9 µM (inactive)
[6]
  GI50: 17.3 µM (inactive)
[7]
  GI50: 26.4 µM (inactive)
[8]
  GI50: 3.6 µM (inactive)
[9]
  GI50: 13.2 µM (inactive)
[10]
  GI50: 20.6 µM (inactive)
[11]
  GI50: 5.47 µM (inactive)
[12]
  GI50: 12.5 µM (inactive)
[13]
  GI50: 13.2 µM
[14]
  GI50: 12.6 µM (inactive)
[15]
  GI50: 17.4 µM (inactive)
[16]
  GI50: 10.4 µM (inactive)
[17]
  GI50: 29.9 µM (inactive)
[18]
  GI50: 15.6 µM (inactive)
[19]
  GI50: 21.8 µM (inactive)
[20]
  GI50: 20.3 µM (inactive)
[21]
  GI50: 15.1 µM (inactive)
[22]
  GI50: 15 µM (inactive)
[23]
  GI50: 14.8 µM (inactive)
[24]
  GI50: 17.6 µM (inactive)
[25]
  GI50: 14.4 µM (inactive)
[26]
  GI50: 9.2 µM (inactive)
[27]
  GI50: 24.8 µM (inactive)
[28]
  GI50: 18.9 µM (inactive)
[29]
  GI50: 16.2 µM (inactive)
[30]
  GI50: 15 µM (inactive)
[31]
  GI50: 16.6 µM (inactive)
[32]
  GI50: 17.2 µM (inactive)
[33]
  GI50: 12.4 µM (inactive)
[34]
  GI50: 17.1 µM (inactive)
[35]
  GI50: 21.4 µM (inactive)
[36]
  GI50: 15.3 µM (inactive)
[37]
  GI50: 16.2 µM (inactive)
[38]
  GI50: 20 µM (inactive)
[39]
  GI50: 17.2 µM (inactive)
[40]
  GI50: 17.1 µM (inactive)
[41]
  GI50: 15.7 µM (inactive)
[42]
  GI50: 16.1 µM (inactive)
[43]
  GI50: 18.5 µM (inactive)
[44]
  GI50: 17.9 µM (inactive)
[45]
  GI50: 11.1 µM (inactive)
[46]
  GI50: 17.5 µM (inactive)
[47]
  GI50: 15.5 µM (inactive)
[48]
  GI50: 19.7 µM (inactive)
[49]
  GI50: 20.5 µM (inactive)
[50]
  GI50: 23.9 µM (inactive)
[51]
  GI50: 6.37 µM (inactive)
[52]
  GI50: 17.1 µM (inactive)
[53]
  GI50: 16.1 µM (inactive)
[54]
  GI50: 16.4 µM (inactive)
[55]
  GI50: 5.71 µM (inactive)
[56]
  GI50: 13.2 µM (inactive)

## CN(/N=C/C=N/N(C)C1=NCCN1)C1=NCCN1
[1]
  GI50: > 100 µM (inactive)
[3]
  GI50: > 100 µM (inactive)
[4]
  GI50: > 100 µM (inactive)
[5]
  GI50: > 100 µM (inactive)
[6]
  GI50: > 100 µM (inactive)
[7]
  GI50: > 100 µM (inactive)
[8]
  GI50: > 100 µM (inactive)
[9]
  GI50: > 100 µM (inactive)
[10]
  GI50: > 100 µM (inactive)
[11]
  GI50: > 100 µM (inactive)
[12]
  GI50: > 100 µM (inactive)
[13]
  GI50: > 100 µM
[15]
  GI50: > 100 µM (inactive)
[57]
  GI50: > 100 µM (inactive)
[16]
  GI50: > 100 µM (inactive)
[17]
  GI50: > 100 µM (inactive)
[18]
  GI50: > 100 µM (inactive)
[19]
  GI50: > 100 µM (inactive)
[20]
  GI50: > 100 µM (inactive)
[21]
  GI50: > 100 µM (inactive)
[22]
  GI50: > 100 µM (inactive)
[23]
  GI50: > 100 µM (inactive)
[24]
  GI50: > 100 µM (inactive)
[25]
  GI50: > 100 µM (inactive)
[26]
  GI50: > 100 µM (inactive)
[27]
  GI50: > 100 µM (inactive)
[28]
  GI50: > 100 µM (inactive)
[29]
  GI50: > 100 µM (inactive)
[30]
  GI50: > 100 µM (inactive)
[31]
  GI50: > 100 µM (inactive)
[32]
  GI50: > 100 µM (inactive)
[33]
  GI50: > 100 µM (inactive)
[34]
  GI50: > 100 µM (inactive)
[35]
  GI50: > 100 µM (inactive)
[36]
  GI50: > 100 µM (inactive)
[37]
  GI50: > 100 µM (inactive)
[38]
  GI50: > 100 µM (inactive)
[40]
  GI50: > 100 µM (inactive)
[41]
  GI50: > 100 µM (inactive)
[42]
  GI50: > 100 µM (inactive)
[43]
  GI50: > 100 µM (inactive)
[45]
  GI50: > 100 µM (inactive)
[46]
  GI50: > 100 µM (inactive)
[47]
  GI50: > 100 µM (inactive)
[48]
  GI50: > 100 µM (inactive)
[58]
  GI50: > 100 µM (inactive)
[49]
  GI50: > 100 µM (inactive)
[50]
  GI50: > 100 µM (inactive)
[51]
  GI50: > 100 µM (inactive)
[52]
  GI50: > 100 µM (inactive)
[53]
  GI50: > 100 µM (inactive)
[54]
  GI50: > 100 µM (inactive)
[55]
  GI50: > 100 µM (inactive)
[56]
  GI50: > 100 µM (inactive)

## CCOC(=O)CCC(NC(=O)Cc1ccc(Oc2nc3ccccc3nc2-c2ccccc2)cc1)C(=O)OCC (stereo not given)
[1]
  GI50: 35.5 µM (inactive)
[2]
  GI50: > 100 µM (inactive)
[3]
  GI50: > 100 µM (inactive)
[4]
  GI50: > 100 µM (inactive)
[5]
  GI50: > 100 µM (inactive)
[6]
  GI50: > 100 µM (inactive)
[7]
  GI50: > 100 µM (inactive)
[8]
  GI50: > 100 µM (inactive)
[9]
  GI50: > 100 µM (inactive)
[10]
  GI50: > 100 µM (inactive)
[11]
  GI50: > 100 µM (inactive)
[12]
  GI50: > 100 µM (inactive)
[13]
  GI50: > 100 µM
[14]
  GI50: > 100 µM (inactive)
[15]
  GI50: 45.6 µM (inactive)
[16]
  GI50: > 100 µM (inactive)
[17]
  GI50: 34.8 µM (inactive)
[19]
  GI50: 63.2 µM (inactive)
[20]
  GI50: > 100 µM (inactive)
[22]
  GI50: > 100 µM (inactive)
[23]
  GI50: 91 µM (inactive)
[24]
  GI50: > 100 µM (inactive)
[25]
  GI50: > 100 µM (inactive)
[26]
  GI50: > 100 µM (inactive)
[27]
  GI50: > 100 µM (inactive)
[28]
  GI50: > 100 µM (inactive)
[29]
  GI50: 19.5 µM (inactive)
[30]
  GI50: > 100 µM (inactive)
[31]
  GI50: > 100 µM (inactive)
[32]
  GI50: 34.6 µM (inactive)
[33]
  GI50: 70.8 µM (inactive)
[34]
  GI50: 96.8 µM (inactive)
[35]
  GI50: 56.4 µM (inactive)
[36]
  GI50: > 100 µM (inactive)
[38]
  GI50: 41.9 µM (inactive)
[39]
  GI50: > 100 µM (inactive)
[59]
  GI50: 37.6 µM (inactive)
[40]
  GI50: 27 µM (inactive)
[41]
  GI50: 67.1 µM (inactive)
[42]
  GI50: 29.9 µM (inactive)
[43]
  GI50: > 100 µM (inactive)
[44]
  GI50: > 100 µM (inactive)
[45]
  GI50: 57.9 µM (inactive)
[46]
  GI50: 58.6 µM (inactive)
[47]
  GI50: > 100 µM (inactive)
[48]
  GI50: 50.6 µM (inactive)
[58]
  GI50: 37.8 µM (inactive)
[49]
  GI50: > 100 µM (inactive)
[50]
  GI50: > 100 µM (inactive)
[51]
  GI50: 24.9 µM (inactive)
[52]
  GI50: 96.4 µM (inactive)
[53]
  GI50: 75.9 µM (inactive)
[54]
  GI50: > 100 µM (inactive)
[55]
  GI50: > 100 µM (inactive)
[56]
  GI50: 52.5 µM (inactive)
